US12383527B2, “Methods for treating triple negative breast cancer using salvianolic acid B” (HOWARD UNIVERSITY, priority 2018, dated 2025)

Experiments:
[1] = test system: glucosylceramide synthase (GCS); assay: Western blot of GCS expression in MDA and MCF-7 cells; format: cell-based, human; details: for GCS protein level (normalized to β-actin): Sal-B 50 μM; for GCS expression, further effect versus 50 μM: Sal-B 100 μM
Experimental: (§1) The immunohistochemical results were consistent with those from Western blotting (FIG. 7, panel A). Western blot analysis was used to determine the expression of apoptosis-related proteins Bcl-XL, survivin, caspase-3 and caspase-8 (FIG. 7, panel A). β-actin was used as an internal control for Western blotting. The MCD-7 and MDA cells were treated with Sal-B (50 μM and 100 μM) and doxorubicin (0.1 μM and 1 μM), respectively, for 24 hours. Proteins were extracted from the cells with RIPA lysis buffer (Santa Cruz Biotechnology, Santa Cruz, CA) and the protein concentrations were quantified with Bio-Rad protein quantification kit. Whole-cell proteins were separated on 8% SDS-polyacrylamide gel, transferred to the polyvinylidene difluoride membrane (Bio-Rad), and then probed with the indicated primary antibodies overnight at 4° C. Washed blots were then incubated with horseradish peroxidase-conjugated anti-rabbit, anti-mouse, or anti-goat antibody (Santa Cruz Biotechnology), respectively, for one hour at room temperature. Blots were developed and visualized with ECL detection system (Bio-Rad).
To understand the mechanism underlying increased ceramide accumulation, the expression levels of GCS and GM3 synthase were measured by Western blot analysis in MDA and MCF-7 cells treated by various concentrations of Sal-B (FIG. 8). The amount of protein expression was normalized by the expression of the internal control β-actin. […] Sal-B was found effective to down-regulate GCS and GM3 synthase expression in cancer cells.

GM3 synthase = assay: Western blot of GM3 synthase expression in MDA and MCF-7 cells; format: cell-based, human
Experimental: as §1
To understand the mechanism underlying increased ceramide accumulation, the expression levels of GCS and GM3 synthase were measured by Western blot analysis in MDA and MCF-7 cells treated by various concentrations of Sal-B (FIG. 8). […]

[2] = Body weight and side effects of treated mice; format: in vivo; details: applicant's previous studies
Experimental: (§2) Human tumor xenografts in athymic nude mice. […] The animal protocol was approved by the Howard University Animal Care and Use Committee. Four-week-old female athymic nude mice (Nu/Nu) were obtained from Harlan Sprague Dawley (Indianapolis, IN). All mice were provided the Harlan Teklad #2018 Global 18% protein rodent diet and water ad libitum. Mice were housed in temperature-controlled rooms (74±2° F.) with a 12-hour alternating light-dark cycle. MDA cells (3×10^6/50 μL/spot) were subcutaneously injected into the both sides of lower back of mice using a 27-gauge needle. On day 10 after cell implantation, the mice with tumors (˜5 mm in diameter) were randomly divided into Sal-B treated, doxorubicin treated, and untreated groups (five mice per group), and were administrated Sal-B (80 mg/kg, three times per week), doxorubicin (4 mg/kg, every four weeks) and 0.9% saline (50 μl, three times per week), respectively, by intraperitoneal injection for a total of 37 days. […] All mice were sacrificed on day 37.

[3] = test system: proliferating cell nuclear antigen (PCNA); assay: Immunohistochemical staining of PCNA in MDA tumor xenografts; format: in vivo, athymic nude mice; details: Sal-B 80 mg/kg three times per week; versus untreated; P<0.05
Experimental: (§3) Human tumor xenografts in athymic nude mice. […] The animal protocol was approved by the Howard University Animal Care and Use Committee. Four-week-old female athymic nude mice (Nu/Nu) were obtained from Harlan Sprague Dawley (Indianapolis, IN). All mice were provided the Harlan Teklad #2018 Global 18% protein rodent diet and water ad libitum. Mice were housed in temperature-controlled rooms (74±2° F.) with a 12-hour alternating light-dark cycle. MDA cells (3×10^6/50 μL/spot) were subcutaneously injected into the both sides of lower back of mice using a 27-gauge needle. […]
Immunohistochemical staining was performed as described previously (Hao Y, et al., “Enforced expression of miR-101 inhibits prostate cancer cell growth by modulating the COX-2 pathway in vivo,” Cancer Prev Res (Phila), 2011; 4: 1073-1083). […] For the quantification, ten high-magnification (40×) fields were randomly selected from each slide of tumors and the positive cells were counted. The protein expression was expressed as the average number of positive cells per high magnification field.

cyclin B1 = assay: Western blot of cyclin B1 expression in MDA and MCF-7 cells; format: cell-based, human; details: Sal-B 50 μM and 100 μM, 24 hours
Experimental: The expression of two cell cycle-related proteins—cyclin A and cyclin B1—was checked by Western blot. The expression of cyclin A and cyclin B1 was normalized by the expression of the internal control β-actin (lower panel). The cells were treated with 50 μM and 100 μM Sal-B, respectively, for 24 hours. Doxorubicin (0.1 μM and 1 μM) was used as a control. […] The results may be explained by that the cell cycle progression is controlled by a large set of molecules, although cyclin B1 is a key component in the control of cell cycle progression from G2 to M phase.
as §1

Bcl-xL = assay: Western blot of Bcl-xL expression in MDA and MCF-7 cells; format: cell-based, human; details: Sal-B 50 μM and 100 μM, 24 hours
Experimental: as §1

survivin = assay: Western blot of survivin expression in MDA and MCF-7 cells; format: cell-based, human; details: Sal-B 50 μM and 100 μM, 24 hours
Experimental: as §1

MDA-MB-231 cells = assay: Cell cycle profile analysis by flow cytometry; format: cell-based, human; details: Sal-B 50 μM and 100 μM, 24 hours
Experimental: (§4) Cell cycle profile analysis using flow cytometry and Western blot analysis. To understand the effects of Sal-B on the cell cycle of cancer cells, the cell cycle profile was analyzed using flow cytometry. The cells from both cell lines were treated with Sal-B (50 and 100 µM) or doxorubicin (0.1 and 1 μM) for 24 hours and then fixed in chilled 80% ethanol. The fixed cells were incubated in a solution containing 100 μg/mL RNase at 37° C. water bath for 45 minutes. Propidium iodide (final concentration of 50 μg/ml) was then added to the cells and incubated in a 37° C. water bath for another 15 minutes. The analysis was carried out with a FACStar flow cytometer (Becton Dickinson, San Jose, CA). Ten thousand cells per sample were analyzed, cach sample was done in triplicate and the experiment was repeated three times.

MCF-7 cells = assay: Cell cycle profile analysis by flow cytometry; format: cell-based, human; details: Sal-B 50 μM and 100 μM, 24 hours
Experimental: as §4

ceramides = assay: Immunohistochemistry of ceramides in MDA tumor xenografts; format: in vivo, athymic nude mice; details: Sal-B 80 mg/kg three times per week; untreated control 2.3±0.7; P<0.05
Experimental: as §3
Immunohistochemical staining was performed as described previously (Hao Y, et al., “Enforced expression of miR-101 inhibits prostate cancer cell growth by modulating the COX-2 pathway in vivo,” Cancer Prev Res (Phila), 2011; 4: 1073-1083). […] For the quantification, ten high-magnification (40×) fields were randomly selected from each slide of tumors and the positive cells were counted. The protein expression was expressed as the average number of positive cells per high magnification field. […]

MDA tumor xenografts = assay: Human tumor xenografts in athymic nude mice, tumor weight; format: in vivo; details: Sal-B 80 mg/kg three times per week, intraperitoneal; day 37; mean±SD; untreated control 0.81±0.12 g
Experimental: as §2

Question: For `O=C(/C=C/c1ccc(O)c2c1[C@H](C(=O)O[C@H](Cc1ccc(O)c(O)c1)C(=O)O)[C@@H](c1ccc(O)c(O)c1)O2)O[C@H](Cc1ccc(O)c(O)c1)C(=O)O` [Sal-B, Salvianolic acid B], which “GCS protein level (normalized to β-actin)” value ([1]; MCF-7 cells) is on record?
Answer: sufficient to inhibit GCS protein level

Question: And the “GCS expression, further effect versus 50 μM” value ([1]; MCF-7 cells)?
Answer: No further inhibitory effect

Question: And the “GCS protein level (normalized to β-actin)” value ([1]; MDA cells)?
Answer: sufficient to inhibit GCS protein level

Question: What about the “GCS expression, further effect versus 50 μM” value ([1]; MDA cells) of the same compound?
Answer: No further inhibitory effect

Question: What about the “expression of GM3 synthase (normalized to β-actin)” value (GM3 synthase; MCF-7 cells, Sal-B 100 μM) of the same compound?
Answer: significantly diminished

Question: What about the “expression of GM3 synthase (normalized to β-actin)” value (GM3 synthase; MDA cells, Sal-B at both 50 μM and 100 μM) of the same compound?
Answer: significantly diminished

Question: And the side effects ([2]; Sal-B 80 mg/kg three times per week)?
Answer: no obvious side effects

Question: And the “side effects at higher dosage” value ([2]; Sal-B dosage higher than 80 mg/kg three times per week)?
Answer: weight loss in some mice

Question: What about the “PCNA levels in tumor xenografts” value [3] of the same compound?
Answer: higher in untreated MDA tumor xenografts

Question: And the “cyclin B1 expression (normalized to β-actin)” value (cyclin B1; MCF-7 cells)?
Answer: down-regulation

Question: And the “cyclin B1 expression (normalized to β-actin)” value (cyclin B1; MDA cells)?
Answer: down-regulation

Question: And the Bcl-xL protein expression (Bcl-xL; MCF-7 cells)?
Answer: downregulated

Question: What about the Bcl-xL protein expression (Bcl-xL; MDA cells) of the same compound?
Answer: downregulated

Question: What about the survivin protein expression (survivin; MCF-7 cells) of the same compound?
Answer: downregulated

Question: What about the survivin protein expression (survivin; MDA cells) of the same compound?
Answer: downregulated

Question: What about the “changes in the cell cycle phases” value (MDA-MB-231 cells) of the same compound?
Answer: no significant changes

Question: And the “changes in the cell cycle phases” value (MCF-7 cells)?
Answer: no significant changes

Question: And the “ceramide levels in tumor xenografts (ceramide positive cells counted)” value (ceramides)?
Answer: 9.6±2.4

Question: And the average tumor weight (MDA tumor xenografts)?
Answer: 0.26 ± 0.06 g
